According to patent US7612081B2 (priority 2003, dated 2009):
Where two headings read alike, the source gives them in different places.

Key:
[1] = tested on: NCl—H460 non-microcytoma lung cancer cells; test: Cytotoxic activity on NCl—H460 cells (sulforodamine B); conditions: for IC50: read-out: IC50 (product concentration that inhibits cell survival by 50%), 2 hours exposure, 72 hours recovery, mean ± SD
Experimental: NCl—H460 non-microcytoma lung cancer cells were kept in RPMI 1640 culture medium containing 10% FCS and 1% glutamine. The cytotoxicity test to analyse the activity of the molecules was performed as follows. The cells were seeded in a volume of 250 μl in 96-well plates and incubated for 2 hours at 37° C. with scalar concentrations of the products in a humidified atmosphere containing 5% CO2. At the end of the incubation, the molecules were removed by overturning the plates and adding sterile buffered saline solution (PBS) three times. The RPMI 1640 culture medium containing 10% FCS (200 μl) was added to the wells and the plates were incubated for another 72 hours. At the end of the incubation, the plates were overturned again and dried on paper, before adding 200 μl of PBS and 50 μl of 80% TCA. The plates were incubated again in ice for at least 1 hour. The TCA was removed by overturning the plates and the plates were first dried on paper and then washed three times by immersion in distilled water and overturning. The plates were dried first on paper and then in a thermostatically regulated incubator at 60° C. for 10 min. 200 μl of 0.4% sulforodamine B in 1% acetic acid were added to all wells. The plates were incubated at room temperature for another 30 min. The sulforodamine B was removed by overturning, the plates were washed by immersion in 1% acetic acid three times and then dried first on blotting paper and then in the thermostat at 60° C. for 10 min. Lastly, 200 μl of Tris base 10 mM were added to all wells and the plates were subjected to stirring for at least 20 min. The optical density was measured with a Multiskan spectrophotometer at 540 nm.

[2] = tested on: Saccharomyces cerevisiae yeast strain EKY3 (top1Δ), YCpGAL1-hTOP1G363C; test: Yeast in-vivo spot test, G363C mutant; format: cell-based; conditions: 45 μM
Description: (§1) To identify camptothecin derivatives that overcome the resistance to camptothecin induced by point mutations on topisomerase I DNA in the Saccharomyces cerevisiae yeast model, an in-vivo and an in-vitro system were used in parallel.
(§2) A number of mutations are present close to the active site of the enzyme (tyrosine 723) and others around position 363 which corresponds to a very well conserved region.
(§3) Before effecting the transformation of the yeasts, the yeasts were unfrozen and plated with a sterile bent glass rod in 90-mm plates containing sterile solid YPDa medium (10 g of yeast extract, 20 g of peptone, 20 g of dextrose, 0.7 g of adenine, 20 g of glucose, 20 g of agar per liter). Colonies formed after 48-72 hours in an incubator at 30° C.
(§4) One day before the transformation, a single yeast colony sample was taken with a sterile Gilson tip and inoculated in 5 ml of sterile liquid YPDA medium (the above-mentioned medium without agar). […]
(§5) Before treating the yeasts with the camptothecin derivatives (in-vivo spot test), the transformed colonies were inoculated with a Gilson tip in 5 ml sterile liquid CM medium. […] On the day after, the optical density of the colonies was measured at 600 nm and a dilution of the colonies was performed in order to obtain an optical density of 0.3. […] The colonies were incubated at 30° C. for 48-72 hours and analysed macroscopically.

[3] = tested on: Saccharomyces cerevisiae yeast strain EKY3 (top1Δ), YCpGAL1-hTOP1K720E; test: Yeast in-vivo spot test, K720E mutant; format: cell-based; conditions: 45 μM
Description: as §1, §2, §3, §4, §5

[4] = tested on: Saccharomyces cerevisiae yeast strain EKY3 (top1Δ), Topoisomerase I wild-type (TOP1); test: Yeast in-vivo spot test, wild-type TOP1; format: cell-based; conditions: 45 μM
Experimental: One day before the transformation, a single yeast colony sample was taken with a sterile Gilson tip and inoculated in 5 ml of sterile liquid YPDA medium (the above-mentioned medium without agar). The colony was grown overnight under stirring at 30° C. […]

[5] = tested on: MKN-28 human gastric carcinoma; conditions: for LCK (1000 mm^3) (log cell kill): q4dx4; for TVI % (tumor volume inhibition): q4dx4, 20 days after last treatment
Experimental: Tumor fragments were inoculated on both flanks at day 0. Treatment started when tumors were just palpable. The molecule was given by oral route and intravenously according to the schedule q4d×4. During the treatment, animals were inspected every day for mortality. Physical appearance, behavior and general and local clinical signs of the mice will be observed daily. Any deviation from normality was recorded. All animals were weighed during the whole treatment period, in order to calculate the percent body weight loss due to the treatment.
Tumor volume inhibition % in treated over control tumors was evaluated 20 days after last treatment. To determine the antitumor activity of the drug, tumor diameters was measured biweekly with a Vernier caliper. The formula TV (mm^3)=[length (mm)×width (mm)^2]/2 was used, where the width and the length are the shortest and the longest diameters of each tumor, respectively.
When tumors reached a weight of about 2 g, the mice were sacrificed by cervical dislocation. LCK (log cell kill) as index of efficacy was calculated to evaluate the persistence of the effect of the molecule at the end of the treatment.

[6] = tested on: Saccharomyces cerevisiae yeast strain EKY3 (top1Δ), YCpGAL-1hTOP1A653P; test: Yeast in-vivo spot test, A653P mutant; format: cell-based; conditions: 45 μM
Description: as §1, §2, §3, §4, §5

Molecule: 7-[N-(N′-tert-butoxcarbonyl)-putrescinimino-methyl]-20S-camptothecin [ST2615]
- IC50 [1]: > 200 nM

Molecule: 7-[(N′,N″,N′″-tert-butoxycarbonyl)-spermine-imino-methyl]-20S-camptothecin [ST2544]
- Phenotype of mutated enzyme G363C towards the derivative [2]: resistant
- Phenotype of K720E mutant towards the derivative [3]: sensitivity
- IC50 [1]: 12.9 ± 1.8 nM
- Phenotype of Topoisomerase I wild-type towards the derivative [4]: sensitivity
- LCK (1000 mm^3) (log cell kill) ([5]; iv, 1 mg/kg): 0.2
- TVI % (tumor volume inhibition) ([5]; iv, 1 mg/kg): 34%
- LCK (1000 mm^3) (log cell kill) ([5]; iv, 2 mg/kg): 0.2
- TVI % (tumor volume inhibition) ([5]; iv, 2 mg/kg): 36%
- LCK (1000 mm^3) (log cell kill) ([5]; iv, 4 mg/kg): 0.8
- TVI % (tumor volume inhibition) ([5]; iv, 4 mg/kg): 66%
- LCK (1000 mm^3) (log cell kill) ([5]; p.o., 1 mg/kg): 0.1
- TVI % (tumor volume inhibition) ([5]; p.o., 1 mg/kg): 28%
- LCK (1000 mm^3) (log cell kill) ([5]; p.o., 2 mg/kg): 0.5
- TVI % (tumor volume inhibition) ([5]; p.o., 2 mg/kg, 2 mg/kg): 62%
- TVI % (tumor volume inhibition) ([5]; p.o., 4 mg/kg, 4 mg/kg): 72%
- Phenotype of mutated enzyme A653P towards the derivative [6]: resistant

Molecule: 7-[(N′, N″-tert-butoxycarbonyl)-spermidine-imino-methyl]-20S-camptothecin [ST2598]
- Phenotype of mutated enzyme G363C towards the derivative [2]: resistant
- Cytotoxicity on the lung cancer line (in words) [1]: very potent cytotoxicity
- IC50 [1]: 15 ± 2 nM
- Phenotype of Topoisomerase I wild-type towards the derivative [4]: sensitivity
- Phenotype of mutated enzyme A653P towards the derivative [6]: resistant

Molecule: CC[C@@]1(O)C(=O)OCc2c1cc1n(c2=O)Cc2c-1nc1ccccc1c2C=NCC1CCN(C(=O)OC(C)(C)C)CC1 [ST2665]
- IC50 [1]: > 200 nM

Molecule: CCC1(O)C(=O)OCc2c1cc1n(c2=O)Cc2c-1nc1ccccc1c2C=NOCCCNC(=O)OC(C)(C)C (stereo not drawn) [ST2664, 7-[3-(N-tert-butoxycarbonyl)-amino-1-propoxyiminomethyl]20S-camptothecin]
- IC50 [1]: > 200 nM

Molecule: 7-[(N′,N″-Di-benzyloxycarbonyl)-spermidineiminomethyl]-20S-camptothecin [ST2729]
- IC50 [1]: 34 ± 7 nM

Molecule: CCC1(O)C(=O)OCc2c1cc1n(c2=O)Cc2c-1nc1ccccc1c2C=NOCCCN(CCCCNC(=O)OC(C)(C)C)C(=O)OC(C)(C)C (centres unmarked) [ST2872]
- IC50 [1]: > 200 nM
